Values of other authors in patent publication US20070160663A1, “Single unit pharmaceutical composition comprising a mixture of fenofibrate and a modified release form of a homocysteine reducing agent” (GALEPHAR PHARMACEUTICAL RESEARCH, INC., priority 2003, published 2007).
One block for each compound: values may come before it.

- Tmax (after oral administration): 3 to 6 h
Compound: CC(C)OC(=O)C(C)(C)Oc1ccc(C(=O)c2ccc(Cl)cc2)cc1 [Fenofibrate, p-(4-chlorobenzoyl)-phenoxy isobutyrate isopropyl ester]

- Tmax (time to peak plasma level) (after oral administration of a conventional marketed form such as Lipanthyl tablet or Fenogal capsule): 3 to 6 h
Compound: CC(C)(Oc1ccc(C(=O)c2ccc(Cl)cc2)cc1)C(=O)O [Fenofibric acid]

- elimination half-life (in vivo): 3 h
Compound: Nc1nc2ncc(CNc3ccc(C(=O)N[C@@H](CCC(=O)O)C(=O)O)cc3)nc2c(=O)[nH]1 [folic acid]
